Paper PMC3486876 (PLoS Neglected Tropical Diseases, 2012)
Values joined by “and” are separate entries in the source; they are usually repeats but may differ in a detail not shown here. Identical values can stand only once. Like-named read-outs stand apart in the source and are kept apart here. Marks after values point to notes of the source that are not given here.

How the values were obtained:
[1] = target: T1, rat α1β2γ2 GABA(A) receptor (Rattus norvegicus, UniProt P18508+P62813+P63138); test: Two-electrode voltage-clamp of GABA(A) receptor expressed in Xenopus laevis oocytes; assay type: cell-based; conditions: for Emax: read-out: Emax (maximum potentiation relative to GABA alone)
T1 construct: expressed in transfected cells; host or cells: Xenopus laevis oocytes injected with cRNA (constructs a gift from Dr Erwin Sigel)
T1 sequence (P62813 28-455): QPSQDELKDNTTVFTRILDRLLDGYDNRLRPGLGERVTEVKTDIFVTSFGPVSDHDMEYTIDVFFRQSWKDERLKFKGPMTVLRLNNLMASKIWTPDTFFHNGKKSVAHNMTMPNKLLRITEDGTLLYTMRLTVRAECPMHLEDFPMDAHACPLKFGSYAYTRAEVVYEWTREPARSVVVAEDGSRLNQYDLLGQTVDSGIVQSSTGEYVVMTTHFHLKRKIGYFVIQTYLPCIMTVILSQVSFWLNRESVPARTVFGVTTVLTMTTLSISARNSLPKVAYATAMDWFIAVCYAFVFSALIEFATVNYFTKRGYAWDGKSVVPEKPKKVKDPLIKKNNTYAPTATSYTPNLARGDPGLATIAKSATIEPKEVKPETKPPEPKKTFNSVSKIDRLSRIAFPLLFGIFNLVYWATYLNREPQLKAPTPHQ
T1 sequence (P63138 25-474 limits assumed): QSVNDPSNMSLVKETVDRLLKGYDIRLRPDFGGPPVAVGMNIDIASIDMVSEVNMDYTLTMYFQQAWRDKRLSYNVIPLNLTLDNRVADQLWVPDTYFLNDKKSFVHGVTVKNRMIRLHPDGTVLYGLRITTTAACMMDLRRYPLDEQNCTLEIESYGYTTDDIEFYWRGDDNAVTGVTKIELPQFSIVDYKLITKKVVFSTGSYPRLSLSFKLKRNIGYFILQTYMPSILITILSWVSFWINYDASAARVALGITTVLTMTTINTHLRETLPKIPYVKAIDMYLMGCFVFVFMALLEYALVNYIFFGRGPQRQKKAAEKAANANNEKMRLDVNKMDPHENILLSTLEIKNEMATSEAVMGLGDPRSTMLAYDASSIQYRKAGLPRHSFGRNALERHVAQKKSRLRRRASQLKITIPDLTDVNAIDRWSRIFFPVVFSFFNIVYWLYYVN
T1 sequence (P18508 39-466): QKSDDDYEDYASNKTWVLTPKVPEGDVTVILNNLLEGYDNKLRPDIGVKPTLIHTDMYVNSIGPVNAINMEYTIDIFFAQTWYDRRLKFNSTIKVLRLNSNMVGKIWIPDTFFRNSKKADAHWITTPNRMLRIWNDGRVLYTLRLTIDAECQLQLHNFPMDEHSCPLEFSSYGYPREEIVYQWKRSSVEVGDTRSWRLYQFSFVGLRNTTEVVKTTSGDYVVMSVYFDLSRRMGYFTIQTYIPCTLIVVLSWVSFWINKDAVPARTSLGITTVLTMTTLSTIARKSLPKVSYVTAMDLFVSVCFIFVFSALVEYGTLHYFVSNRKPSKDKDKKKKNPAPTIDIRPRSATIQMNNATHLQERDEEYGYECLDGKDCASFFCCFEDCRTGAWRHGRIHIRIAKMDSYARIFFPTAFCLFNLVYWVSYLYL
Protocol: Oocytes from X. laevis, injected with foreign cDNA of the receptor of choice, are a commonly used tool for studying the activity of plasma membrane receptors. […] Isolation of oocytes from the frogs, defolliculation, culturing of the oocytes and injection of cRNA were performed as described previously. Oocytes were injected with 46 nl of RNA solution, with RNA coding for α1, β2 and γ2 subunits at a ratio of 10∶10∶50 nM [30]. The injected oocytes were incubated in modified Barth's solution [90 mM NaCl, 3 mM KCl, 0.82 mM MgSO4, 0.41 mM CaCl2, 0.34 mM Ca(NO3)2, 100 U/ml penicillin, 100 µg/ml streptomycin and 100 µg/ml kanamycin, 5 mM HEPES pH 7.6] at 18°C for approximately 36 h before the measurements to ensure the expression of a functional receptor.
Electrophysiological experiments were performed by the two-electrode voltage-clamp method. Measurements were done in ND96 medium containing 96 mM NaCl, 2 mM KCl, 1 mM MgCl2, 1.8 mM CaCl2 and 5 mM HEPES, pH 7.5, at a holding potential of −80 mV. Currents were measured using a custom-made two-electrode voltage clamp amplifier in combination with an XY recorder (90% response time, 0.1 s). The intracellular electrodes were filled with 3 M KCl (resistance of 0.5–1.5 MΩ). […] The perfusion solution (6 ml/min) was applied through a glass capillary with an inner diameter of 1.35 mm. […] The modulatory compounds (IVM and MOX) were first dissolved in DMSO at 20 mM and then diluted in ND96 to the final concentration.
Concentration ranges used were: IVM: 0.5 nM–10 µM; MOX: 1 nM–5 µM.
A washout period of 5 min between each agonist application was introduced, allowing receptors to fully recover from desensitization. The perfusion system was cleaned, after application of MLs, between each experiment by washing with 10% DMSO in ND96 to avoid contamination. Three or four different batches of oocytes were used to collect data for each analysis.
All experiments were conducted at least in triplicate. Differences in ML tissue concentrations were analyzed by one-way analysis of variance (ANOVA) with a Tukey post-test and are expressed as mean ± standard deviation (S.D.). […] Half-maximal concentrations (EC50), slope factors (Hill coefficients, nH) and maximal potentiation values for ML-induced activation of current were obtained using the Hill equation. Statistical analysis was performed using unpaired t-tests with Welch's correction to allow for differences in variances (GraphPad Instat, San Diego, CA, USA). Differences were considered statistically significant when p<0.05.

[2] = system: purinergic (ATP) (cationic) receptors; conditions: cited from earlier work
[3] = system: acetylcholine receptors; design: method as in PMID 17707779; conditions: cited from earlier work
[4] = Acute toxicity (14-day survival, LD50) after subcutaneous administration; conditions: mouse, in vivo, sc, Mdr1ab(−/−) mice, survival over 14 days, determined graphically
Protocol: (§1) For acute toxicity experiments, Mdr1ab(−/−) mice (2–8 per dose rate) were injected subcutaneously with drug solutions at dose rates ranging from 0.1–1.75 mg/kg bw (0.11–2.0 µmol/kg bw) for IVM and 0.2–8.2 mg/kg bw (0.31–12.9 µmol/kg bw) for MOX. […] Mice were euthanized when severe tremors or ataxia were noted.

[5] = system: Mdr1ab(−/−) mice; test: Neurological symptoms after subcutaneous administration; assay type: in vivo, mouse; conditions: for Neurological signs: 0.46 µmol/kg SC; for Start of neurotoxic signs (lethargy, tremors and/or ataxia): dose rates close to the respective LD50 (0.46 IVM, 2.3 MOX µmol/kg)
Protocol: as §1

[6] = system: Mdr1a-deficient mice; design: method as in PMID 7910522; conditions: Mdr1a-deficient mice mutated on only the abcb1a gene; cited from earlier work
[7] = system: P-gp-deficient dogs; conditions: cited from earlier work
[8] = no reference given; cited from earlier work
[9] = system: wild-type mice; conditions: cited from earlier work
[10] = Drug concentration in plasma and brain (HPLC) in Mdr1ab(−/−) mice; assay type: in vivo, mouse; conditions: 24 h post-treatment; for Brain concentration at LD50: determined graphically from Figure 3A; for Brain-to-plasma ratio (slope of brain vs plasma concentration): increasing doses
[11] = system: humans; design: method as in clinicaltrials.gov NCT00856362, NCT00300768, NCT00790998; conditions: approximately 1,700 people; ref clinicaltrials.gov NCT00856362, NCT00300768, NCT00790998; cited from earlier work
[12] = system: P-gp; design: method as in PMID 17134887; conditions: cited from earlier work
[13] = Drug concentration in plasma and brain (HPLC) in wild-type mice; assay type: in vivo, mouse; conditions: 24 h post-treatment; for Brain concentration at LD50: determined graphically from Figure 3B; for Brain-to-plasma ratio (slope of brain vs plasma concentration): increasing doses
Protocol: (§2) Mice were anesthetized 2 h or 24 h after administration with isoflurane and heparinized blood samples were collected from the orbital sinus vein. Immediately thereafter, mice were sacrificed by cervical dislocation and brains were rapidly removed. Blood samples were centrifuged at 1500 g for 10 min at 4°C and the plasma fraction was collected and stored at −20°C until analysis. The brains were washed in saline solution and frozen at −20°C until analysis.
(§3) ML concentrations were determined in plasma and brain by high performance liquid chromatography (HPLC) with fluorescence detection according to previously described and validated methods, [25]. In brief, plasma and tissues were homogenised in acetonitrile (1∶1 v/v or 1∶2 v/w, respectively). Samples were centrifuged at 2000 g and the supernatant applied to a Supelco C18 cartridge (Supelco Inc., Bellefonte, PA, USA) by using automated solid phase extraction (SPE). […] The eluate was evaporated and the dry extract was processed to obtain a fluorophore derivative by dissolving it in 1N-methylimidazole and trifluoroacetic anhydride solutions. Samples were injected into the HPLC system (PU980 pump, Jasko, Tokyo, Japan; 360 automatic injector, Kontron, Paris, France; RF-551 fluorescence detector, Shimadzu, Kyoto, Japan). For IVM and MOX a Supelcosil LC18 column (250×4.6 mm, 5 µm, Supelco, Bellefonte, PA, USA) was used with acetic acid (0.2% in water)∶methanol∶acetonitrile (4∶40∶56, v/v/v) as mobile phase.

[14] = Drug concentration in plasma and brain (HPLC) in Mdr1ab(−/−) mice; assay type: in vivo, mouse; conditions: 0.23 µmol/kg SC
Protocol: For drug plasma concentration and brain accumulation assessment, Mdr1ab(−/−) mice were injected subcutaneously with an equivalent molar dose rate for both MLs in Mdr1ab(−/−) mice (6 animals per group): 0.23 µmol/kg, corresponding to 0.20 mg/kg and 0.15 mg/kg for IVM and MOX, respectively. Mice were sacrificed at 2 or 24 h after treatment.
as §2, §3

[15] = oral administration, ref 20 (IVM), 21 (MOX)
[16] = potentiation of current evoked by 2 µM GABA (EC10)

With `NCCCC(=O)O` [GABA, γ-aminobutyric acid] the “EC10 (concentration producing 10% of maximal response)” value ([1]; GABA alone, n = 12) was 2080 ± 1180 nM and the Hill slope ([1]; GABA alone, n = 12) was 1.30±0.07 and 1.30±0.02.

In the case of `CCC(C)[C@H]1O[C@]2(CC[C@@H]1C)C[C@@H]1C[C@@H](C/C=C(\C)[C@@H](O[C@H]3C[C@H](OC)[C@@H](O[C@H]4C[C@H](OC)[C@@H](O)[C@H](C)O4)[C@H](C)O3)[C@@H](C)/C=C/C=C3\CO[C@@H]4[C@H](O)C(C)=CC(C(=O)O1)[C@]34O)O2` (some centres unmarked) [Ivermectin], the “Concentration required to potentiate the receptors” value [2] is given as 3 µM, the “Concentration required to potentiate the receptors” value [3] is given as 30 µM and the LD50 at 14 days [4] is given as 0.4 mg/kg and 0.46 µmol/kg. The Behaviour of mice ([5]; 0.11 µmol/kg SC) was “no changes in the behaviour of mice were observed”, the Neurological symptoms observed ([5]; 0.11 µmol/kg SC, 1 h post-treatment (ditto marks to 14 d)) was “Visually normal” and the Neurological symptoms observed ([5]; 0.40 µmol/kg SC, 1 h post-treatment (ditto marks to 5 h)) was “Visually normal”. For the same compound, the Neurological symptoms observed ([5]; 0.40 µmol/kg SC, 6 h post-treatment) was “Lethargy”, the Neurological symptoms observed ([5]; 0.40 µmol/kg SC, 7 h post-treatment, these mice euthanized) was 2/5 Ataxia ^c/tremor ^d ^† and the Neurological symptoms observed ([5]; 0.40 µmol/kg SC, 12 h post-treatment) was 3/5 Sleepiness. The Neurological symptoms observed ([5]; 0.40 µmol/kg SC, 1 d post-treatment (ditto marks to 14 d)) was “Visually normal”, the Neurological signs ([5]; 6 h post-administration) was “severe neurotoxic signs” and the Neurological signs ([5]; just after administration) was “hyperactivity”. The Neurological symptoms observed ([5]; 0.69 µmol/kg SC, 2 h post-treatment) was “Rapid breathing”, the Neurological symptoms observed ([5]; 0.69 µmol/kg SC, 5 h post-treatment) was “Ataxia ^c” and the Neurological symptoms observed ([5]; 0.69 µmol/kg SC, 6 h post-treatment, mice euthanized) was “Lethargy ^†”. For the same compound, the “Start of neurotoxic signs (lethargy, tremors and/or ataxia)” value [5] was 6 h, the LD50 [6] was 0.6–0.8 µmol/kg bw and the Signs of neurotoxicosis ([7]; MDR1-deficient dogs, therapeutic dose 0.2 mg/kg) was “severe signs of neurotoxicosis”. For the same compound, the logP [8] was 4.8, the LD50 [9] was 27–34 ^b µmol/kg and the LD50 [9, 15] was “around 30 mg/kg”. For the same compound, the EC50 [1] was 33.8 ± 7.7 nM, the “Maximum potentiation of the GABA(A) receptor by IVM compared with MOX” value ([1]; co-application with 2 µM GABA) was ~2 fold and the “Concentration to reach Emax” value [1, 16] was 0.49 µM. It also gave a Hill slope [1, 16] of 1.52±0.45, a Hill slope ([1]; potentiation of current evoked by 2 µM GABA (EC10), listed as IVM) of 1.52 and an Emax [1] of 414 ± 66.1%.

With `CO/N=C1\C[C@]2(C[C@@H]3C[C@@H](C/C=C(\C)C[C@@H](C)/C=C/C=C4\CO[C@@H]5[C@H](O)C(C)=C[C@@H](C(=O)O3)[C@]45O)O2)O[C@H](/C(C)=C/C(C)C)[C@H]1C` [Moxidectin] the LD50 at 14 days [4] was 1.47 mg/kg and 2.3 µmol/kg, the Toxicity ([5]; 0.46 µmol/kg SC (same dose rate as IVM)) was “did not show any toxicity” and the Neurological symptoms observed ([5]; 2 µmol/kg SC, 1 h post-treatment) was “Visually normal”. For the same compound, the Neurological symptoms observed ([5]; 2 µmol/kg SC, 2 h post-treatment (ditto marks to 4 h; transient), listed as MOX) was “rapid breathing was transiently observed”, the Neurological symptoms observed ([5]; 2 µmol/kg SC, 5 h post-treatment (ditto marks to 14 d)) was “Visually normal” and the Neurological symptoms observed ([5]; 2.6 µmol/kg SC, 1 h post-treatment (ditto marks to 3 h)) was “Visually normal”. The Neurological symptoms observed ([5]; 2.6 µmol/kg SC, 4 h post-treatment (ditto marks to 8 h)) was “Sleepiness”, the Neurological symptoms observed ([5]; 2.6 µmol/kg SC, 12 h post-treatment, mice euthanized) was “Ataxia ^c/Tremor ^d ^†” and the Neurological symptoms observed ([5]; 4 µmol/kg SC, 1 h post-treatment) was “Balance problems”. For the same compound, the Neurological symptoms observed ([5]; 4 µmol/kg SC, 2 h post-treatment (ditto marks to 4 h)) was “Sleepiness”, the Neurological symptoms observed ([5]; 4 µmol/kg SC, 5 h post-treatment, mice euthanized) was “Ataxia ^c/Coma ^†” and the “Start of neurotoxic signs (lethargy, tremors and/or ataxia)” value [5] was 4 h. The “Brain concentration at LD50” value [10] was 830 ^c pmol/g, the “Brain concentration at LD50” value ([10]; listed as MOX) was 830 pmol/g and the “Brain-to-plasma ratio (slope of brain vs plasma concentration)” value [10] was 2.6 (R^2 = 0.936) ^e ml/g. The “Brain-to-plasma ratio (slope of brain vs plasma concentration)” value ([10]; listed as MOX) was 2.6 mL/g, the Serious adverse events [11] was “without evidence of any serious adverse events” and the Dose safely used ([7]; P-gp-deficient Collie dogs, spot-on application) was “up to 32.5 mg/kg”. The Signs of toxicosis ([7]; P-gp-deficient dogs sensitive to IVM, 100 µg/kg daily for 7 days) was “did not produce signs of toxicosis”, the Toxicological signs ([7]; dogs sensitive to 120 µg/kg oral IVM, similar molar dose rate, oral) was “did not produce any toxicological signs” and the “Effectiveness in inhibiting transport activity by P-gp, fold less than IVM” value [12] was 10 fold. The logP [8] was 6, the LD50 [9] was 70–131 ^b µmol/kg and the LD50 [9, 15] was 86 mg/kg. The “Brain concentration at LD50” value [13] was 740–1380 ^d pmol/g, the “Brain concentration at LD50” value ([13]; listed as MOX) was 740 to 1380 pmol/g and the “Brain-to-plasma ratio (slope of brain vs plasma concentration)” value [13] was 0.09 (R^2 = 0.984) ^e ml/g. The “Brain-to-plasma ratio (slope of brain vs plasma concentration)” value ([13]; listed as MOX) was 0.09 mL/g, the Brain-to-plasma concentration ratio ([14]; 2 h) was 0.3 ± 0.1 mL/g and the “Drug concentration in brain” value ([14]; 2 h) was 18.8 ± 2.8 pmol/g. For the same compound, the “Drug concentration in brain” value ([14]; 2 h, listed as MOX) was 18.8 ± 2.8 pmol/g, the Brain-to-plasma concentration ratio ([14]; 24 h) was 2.2 ± 0.7 mL/g and the “Drug concentration in brain” value ([14]; 24 h) was 93.0 ± 28.9 pmol/g. The “Drug concentration in plasma” value ([14]; 24 h) was 42.8 ± 9.3 nM, the Brain-to-plasma concentration ratio ([14]; 24 h, listed as MOX) was 2.2 ± 0.7 mL/g and the concentration at 2 h ([14]; mouse, plasma, 2 h) was 60 ± 14.5 nM. For the same compound, the concentration at 24 h ([14]; mouse, plasma, 24 h) was 42.8 ± 9.3 nM, the EC50 [1] was 11.8 ± 9.2 nM and the “Concentration to reach Emax” value [1, 16] was 0.66 ^c µM. The Hill slope [1, 16] was 0.34±0.56, the Hill slope ([1]; potentiation of current evoked by 2 µM GABA (EC10), listed as MOX) was 0.34±0.56 and 0.34 and the Emax [1] was 257 ± 40.6%.
